Assay results reported in patent US20050037990A1, “Disubstituted 7,9-guanines halides as telomerase inhibitors” (priority 2001, published 2005).

Target: T1, telomerase enzyme (Homo sapiens, UniProt O14746)
T1 construct: telomerase enzyme diluted in a buffer
Assay: Flash Plate-based telomerase assay
Format: biochemical
Settings: telomerase inhibition; two hours of incubation at 37°; Flash Plate hybridization readout
Excerpt: The telomerase activity of the compounds of the invention has been evaluated using a Flash Plate-based assay. […] Other methods for determining the inhibitory concentration of a compound of the invention against telomerase can be employed as will be apparent to a person skilled in the art based on the disclosure herein.
Briefly, the assay mixture is costituted by: • telomerase enzyme diluted in a buffer, the composition of which has been selected to maintain the enzyme activity stable along the duration of the assay. • dNTPs, deoxynucleotides 5′-triphosphate. • biotynilated oligo as primer. • increasing concentrations of test compounds/positive control.
After two hours of incubation at 37° degrees the telomeric repeats added are evaluated by hybridization in solution with a 3′-labeled short oligonucleotide probe.
The extent of hybridization is then quantitated by transferring the reaction mixture in a streptavidin-coated flash plate, where the binding between biotin and streptavidin occurs.
The telomerase activity is proportional to the radioactivity measured and the inhibitory activity of the compounds is evaluated as IC50 using the Sigma Plot fit program.
With the above-described method, IC50 values of the compounds of the present invention were determined.

T1 sequence (O14746 whole entry): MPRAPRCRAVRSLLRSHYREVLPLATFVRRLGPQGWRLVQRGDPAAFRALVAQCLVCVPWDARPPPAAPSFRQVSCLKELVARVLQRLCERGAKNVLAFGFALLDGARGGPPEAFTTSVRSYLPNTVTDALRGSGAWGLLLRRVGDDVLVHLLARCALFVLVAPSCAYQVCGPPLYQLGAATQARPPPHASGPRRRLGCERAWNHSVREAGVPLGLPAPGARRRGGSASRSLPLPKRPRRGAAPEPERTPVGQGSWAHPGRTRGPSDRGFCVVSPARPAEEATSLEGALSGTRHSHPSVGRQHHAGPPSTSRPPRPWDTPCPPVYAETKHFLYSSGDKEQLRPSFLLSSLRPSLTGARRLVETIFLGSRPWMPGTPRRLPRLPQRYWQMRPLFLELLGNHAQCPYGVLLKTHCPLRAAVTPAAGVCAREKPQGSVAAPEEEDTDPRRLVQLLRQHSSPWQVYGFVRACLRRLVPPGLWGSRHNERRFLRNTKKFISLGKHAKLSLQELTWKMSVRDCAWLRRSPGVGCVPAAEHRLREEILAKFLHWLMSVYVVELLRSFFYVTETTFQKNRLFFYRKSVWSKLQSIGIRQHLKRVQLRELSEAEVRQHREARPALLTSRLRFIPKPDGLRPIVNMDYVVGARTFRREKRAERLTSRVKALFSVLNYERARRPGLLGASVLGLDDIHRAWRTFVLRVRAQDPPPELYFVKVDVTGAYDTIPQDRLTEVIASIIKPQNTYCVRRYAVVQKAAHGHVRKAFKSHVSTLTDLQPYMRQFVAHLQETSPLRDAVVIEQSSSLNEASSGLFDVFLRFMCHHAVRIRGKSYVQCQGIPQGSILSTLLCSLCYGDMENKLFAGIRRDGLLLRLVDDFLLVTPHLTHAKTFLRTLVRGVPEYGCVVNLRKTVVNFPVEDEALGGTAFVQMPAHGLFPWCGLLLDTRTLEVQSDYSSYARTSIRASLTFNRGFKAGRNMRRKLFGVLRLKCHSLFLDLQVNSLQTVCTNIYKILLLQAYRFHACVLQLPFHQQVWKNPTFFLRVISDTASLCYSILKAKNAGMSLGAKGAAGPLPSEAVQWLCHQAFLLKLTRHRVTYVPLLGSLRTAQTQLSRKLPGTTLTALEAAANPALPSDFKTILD

IC50 [µM] | SMILES
10 | Nc1nc2c(c(=O)[nH]1)[n+](Cc1ccc3ccccc3c1)cn2Cc1ccc2ccccc2c1 [Compound 1, 2-amino-7,9-bis(2-naphthylmethyl)-6-oxo-6,9-dihydro-1H-purin-7-ium bromide]
3 | Nc1nc2c(c(=O)[nH]1)[n+](Cc1ccc(-c3ccccc3)cc1)cn2Cc1ccc(-c2ccccc2)cc1 [Compound 2, 2-amino-7,9-bis[(1,1′-biphenyl)-4-ylmethyl]-6-oxo-6,9-dihydro-1H-purin-7-ium bromide]
10 | Nc1nc2c(c(=O)[nH]1)[n+](Cc1ccc(Cl)c(Cl)c1)cn2Cc1ccc(Cl)c(Cl)c1 [Compound 4, 2-amino-7,9-bis(3,4-dichlorobenzyl)-6-oxo-6,9-dihydro-1H-purin-7-ium bromide]
4 | Nc1nc2c(c(=O)[nH]1)[n+](Cc1ccc(-c3ccccc3)cc1)cn2Cc1ccc2ccccc2c1 [Compound 7, 2-amino-7-([1,1′-biphenyl]-4-ylmethyl)-9-(2-naphthylmethyl)-6-oxo-6,9-dihydro-1H-purin-7-ium bromide]
